Data taken from US7071294B1, “Tumor antigen protein art-1 and tumor antigen peptide thereof” (Green Peptide Co., Ltd., priority 1998, dated 2006).
Where no end group is shown, it is not given here.

Assays:
[1] = tested on: peripheral blood lymphocytes; test: CTL induction from peripheral blood lymphocytes by tumor antigen peptides; IFN-γ produced in response to MT-2 target cells (ELISA); format: cell-based, human; details: for IFN-γ in Supernatant: HLA-A24 heterozygous healthy donor lymphocytes stimulated three times with 10 μM peptide, 8×10^4 lymphocytes vs 1×10^4 MT-2 target cells, no peptide gave 3; for IFN-γ production by peptide-stimulated peripheral blood lymphocytes in response to the target cell (CTL induction): MT-2 target cells, not seen with no stimulation
Protocol: Using the Ficoll method, lymphocytes were separated from peripheral blood of healthy donors who were heterozygous for A24 in the HLA-A locus. The lymphocytes were placed into wells of a 24-well plate at 2×10^6 cells/well, and cultured in the lymphocyte medium. The above tumor antigen peptides were added to the culture medium at 10 μM to stimulate the peripheral blood lymphocytes. One week later, the above tumor antigen peptides were added to attain 10 μM together with about 2×10^5 cells of X-radiated (50 Gy) peripheral blood lymphocytes for the second stimulation. Additional one week later, the third stimulation was conducted in a similar manner. Cultured lymphocytes were harvested one week after the third stimulation. Using as target cells (1×10^4 cells) MT-2, which is an HLA-A2402-positive leukemia cell line expressing the tumor antigen peptide, the amount of IFN-γ in the culture medium produced by the above lymphocytes (8×10^4 cells) in response to the target cells was measured in accordance with ELISA method.

KG-CTL = test: IFN-γ production by KG-CTL in response to HLA-A2402-transfected COS-7 cells pulsed with peptide (ELISA); format: cell-based, human; details: COS-7 transfected with HLA-A2402 cDNA
Protocol: A surgical sample taken from a patient with lung cancer was cut into small pieces, and then stirred in a culture fluid containing collagenase and DNAse to suspend cells. The cell suspension was centrifuged using Ficoll Conray solution to separate lymphocytes. The lymphocytes were cultured on 24-well plate in a culture medium consisting of 45% RPMI-1640, 45% AIM-V (GIBCO BRL), and 10% FCS supplemented with 100 U/ml interleukin-2 and 0.1 mM NEAA (GIBCO BRL) (hereinafter referred to as lymphocyte medium). During the first two days of the cultivation, an anti-CD3 antibody NU-T3 (Nichirei Corporation) was added to the culture medium at 1 μg/ml. The cultivation was continued for more than 30 days, and a CTL line that is reactive with some kinds of HLA-A24- or HLA-A2-positive cancer cell lines was established. The established CTL line was named KG-CTL and used in subsequent procedures. The reactivity of KG-CTL to each cancer cell line was examined by inoculating the cancer cell line into 96-well plate at 1×10^4, adding KG-CTL at 1×10^5/well thereto on the following day, culturing the same for additional 18 hours, and then determining amount of interferon-γ (IFN-γ) produced by KG-CTL in the recovered culture medium. Measurement of IFN-γ was conducted by enzyme immunoassay (ELISA). […] Anti-human IFN-γ rabbit polyclonal antibody as detection antibody was then allowed to bind, and after binding to an anti-rabbit immunoglobulin goat antibody labeled with […] (Amersham), the chromophore was developed using Peroxidase Chromophoric Kit T (Sumitomo Bakelite), followed by measuring absorbance at 405 nm. The absorbance was compared with that obtained with standard IFN-γ to determine the amount of IFN-γ in the sample. […] The cells were then cultured with 2×10^4 KG-CTLs for 18 hours, and the amount of IFN-γ produced by KG-CTL in the culture supernatant was determined by the ELISA method, thus identifying tumor antigen peptides.

[2] = target: T1, HLA-A2402 expressed on COS-7 cells transfected with a recombinant plasmid for HLA-A2402 cDNA (human, UniProt P04439-2 25-302 at identity 0.92)); test: cell-based or functional assay
T1 MHC heavy: not shown

| Molecule | IFN-γ in Supernatant [1] [pg/mL] | IFN-γ production by peptide-stimulated peripheral blood lymphocytes in response to the target cell (CTL induction) [1] | Reactivity of KG-CTLs compared to cells pulsed with no peptide (KG-CTL) | Amount of IFN-γ produced by KG-CTL in the response [2] [pg/mL] |
| --- | --- | --- | --- | --- |
| EYCLKFTKL [188–196] | 147 | produced IFN-γ in response to the target cell | reacted more strongly | – |
| GFDCANESVL [170–179] | 237 | produced IFN-γ in response to the target cell | reacted more strongly | – |
| LYQAVATI [158–165] | 330 | produced IFN-γ in response to the target cell | reacted more strongly | – |
| EYCLKFTKL | – | – | – | 399 |
| GFDCANESVL | – | – | – | 458 |
| LYQAVATI | – | – | – | 289 |
